The source of these data is ChEMBL document CHEMBL1671670, “CS-8958, a prodrug of the novel neuraminidase inhibitor R-125489, demonstrates a favorable long-retention profile in the mouse respiratory tract” (Antimicrob Agents Chemother, 2009).

Data set [1] deals with Lung. As to the kind of experiment: Biodistribution in lung of BALB/cAnNCrlCrlj mouse at 0.5 umol/kg administered as [14C]labeled compound intranasally as single dose measured 0.25 hrs post dose by liquid scintillation counting. Particulars: in vivo, inhaled_or_intranasal; call rule not given here. It counts as ADME, organism-based.
Data set [2] is described as follows: Biodistribution in trachea of BALB/cAnNCrlCrlj mouse at 0.5 umol/kg administered as [14C]labeled compound intranasally as single dose measured 0.25 hrs post dose by liquid scintillation counting. It counts as ADME, organism-based. Conditions: in vivo, inhaled_or_intranasal.
A short description of data set [3]: Biodistribution in respiratory tract of BALB/cAnNCrlCrlj mouse at 0.5 umol/kg administered as [14C]labeled compound intranasally as single dose measured 72 hrs post dose by whole body autoradiography. It counts as ADME, organism-based. Conditions: in vivo, inhaled_or_intranasal.
Data set [4] relates to Lung. As to the kind of experiment: Biodistribution in lung of BALB/cAnNCrlCrlj mouse at 0.5 umol/kg administered as [14C]labeled compound intranasally as single dose measured 24 hrs post dose by liquid scintillation counting. It counts as ADME, organism-based. Particulars: in vivo, inhaled_or_intranasal.
Data set [5] can be described thus: Biodistribution in trachea of BALB/cAnNCrlCrlj mouse at 0.5 umol/kg administered as [14C]labeled compound intranasally as single dose measured 24 hrs post dose by liquid scintillation counting. It counts as ADME, organism-based. Conditions: in vivo, inhaled_or_intranasal.
Data set [6] in a line: Biodistribution in respiratory tract of BALB/cAnNCrlCrlj mouse at 0.5 umol/kg administered as [14C]labeled compound intranasally as single dose measured 6 hrs post dose by whole body autoradiography. Conditions: in vivo, inhaled_or_intranasal. Format: ADME, organism-based.
Data set [7] can be described thus: Prodrug conversion in BALB/cAnNCrlCrlj mouse lung S9 fraction assessed as compound conversion to R-125489 at 10 uM in presence of esterase inhibitor eserine administered 10 mins before compound addition relative to untreated control. It counts as ADME. Conditions: s9, 10 min.
The nature of data set [8]: Prodrug conversion in BALB/cAnNCrlCrlj mouse lung S9 fraction assessed as compound conversion to R-125489 at 10 uM relative to untreated control. Format: ADME. Particulars: s9, 10 µM.
Data set [9] in a line: Prodrug conversion in BALB/cAnNCrlCrlj mouse lung S9 fraction assessed as compound conversion to R-125489 at 10 uM in presence of esterase inhibitor BNPP administered 10 mins before compound addition relative to untreated control. It counts as ADME. Conditions: s9, 10 min.
Data set [10] is described as follows: Prodrug conversion in BALB/cAnNCrlCrlj mouse lung S9 fraction assessed as compound conversion to R-125489 at 10 uM in presence of esterase inhibitor PCMB administered 10 mins before compound addition relative to untreated control. Format: ADME. Particulars: s9, 10 min.
Data set [11] in a line: Prodrug conversion in BALB/cAnNCrlCrlj mouse lung S9 fraction assessed as compound conversion to R-125489 at 10 uM in presence of esterase inhibitor DTNB administered 10 mins before compound addition relative to untreated control. It counts as ADME. Conditions: s9, 10 min.
Data set [12] in a line: Prodrug conversion in BALB/cAnNCrlCrlj mouse lung S9 fraction assessed as compound conversion to R-125489 at 10 uM in presence of esterase inhibitor DFP administered 10 mins before compound addition relative to untreated control. It counts as ADME. Particulars: s9, 10 min.
Data set [13] is described as follows: Prodrug conversion in BALB/cAnNCrlCrlj mouse lung S9 fraction assessed as compound conversion to R-125489 at 10 uM in presence of esterase inhibitor EDTA administered 10 mins before compound addition relative to untreated control. Conditions: s9, 10 min. It counts as ADME.
A short description of data set [14]: Prodrug conversion in BALB/cAnNCrlCrlj mouse trachea assessed as compound conversion to R-125489 at 10 uM in presence of esterase inhibitor DFP administered 10 mins before compound addition relative to untreated control. Format: ADME, tissue-based.
The nature of data set [15]: Prodrug conversion in BALB/cAnNCrlCrlj mouse trachea assessed as compound conversion to R-125489 at 10 uM relative to untreated control. Format: ADME, tissue-based.
The subject of data set [16] is Lung. As to the kind of experiment: Half life in BALB/cAnNCrlCrlj mouse lung at 0.5 umol/kg administered as [14C]labeled compound intranasally as single dose. It counts as ADME, organism-based. Particulars: in vivo, inhaled_or_intranasal.
The subject of data set [17] is Lung. As to the kind of experiment: Cmax in BALB/cAnNCrlCrlj mouse lung assessed as compound concentration per gram of tissue at 0.5 umol/kg administered as [14C]labeled compound intranasally as single dose. It counts as ADME, organism-based. The arrangement: dose 0.5 umol/kg, route nasal. Particulars: in vivo, inhaled_or_intranasal.
The test system of data set [18] is Lung. As to the kind of experiment: Drug level in BALB/cAnNCrlCrlj mouse lung at 0.5 umol/kg administered as [14C]labeled compound intranasally as single dose measured 120 hrs post dose. Particulars: in vivo, inhaled_or_intranasal. It counts as ADME, tissue-based.
The subject of a further data set is Influenza A virus. As to the kind of experiment: Antiviral activity against Influenza A virus (A/Puerto Rico/8/1934(H1N1)). Format: functional, organism-based.
The subject of data set [19] is Lung. The data set is described as follows: Tmax in BALB/cAnNCrlCrlj mouse lung at 0.5 umol/kg administered as [14C]labeled compound intranasally as single dose. Format: ADME, organism-based. Conditions: in vivo, inhaled_or_intranasal.

Turning to `CO[C@@H]([C@@H]1OC(C(=O)O)=C[C@H](N[14C](=N)N)[C@H]1NC(C)=O)[C@H](O)CO`, the Drug uptake in the data set with Lung [1] is listed as 30 nmolequiv/g; in data set [2], 4 nmolequiv/g.
Take `CCCCCCCC(=O)OC[C@@H](O)[C@@H](OC)[C@@H]1OC(C(=O)O)=C[C@H](N[14C](=N)N)[C@H]1NC(C)=O`: the Drug uptake result in data set [3] is on record as “Active”; with Lung [1], 30 nmolequiv/g; in data set [2], 4 nmolequiv/g; in the data set on Lung [4], 5.57 nmolequiv/g; in [5], 0.99 nmolequiv/g; in [6], “Active”.
In the case of `CCCCCCCC(=O)OC[C@@H](O)[C@@H](OC)[C@@H]1OC(C(=O)O)=C[C@H](NC(=N)N)[C@H]1NC(C)=O` [LANINAMIVIR OCTANOATE], the Activity was 31.9% in data set [7]; 100% in data set [8]; 21% in [9]; 106.5% in [10]; 42% in data set [11]; 13.6% in data set [12]. Moreover, the Activity came to 130.7% in data set [13], 44.1% in [14] and 100% in [15]. In the data set on Lung [16], the t1/2 was determined as 0.833 h.
For `CO[C@@H]([C@@H]1OC(C(=O)O)=C[C@H](NC(=N)N)[C@H]1NC(C)=O)[C@H](O)CO` [LANINAMIVIR], the Cmax with Lung [17] worked out at 6.41 nmol/g. For the same compound, the Drug uptake with Lung [18] stood at 0.915 nmol/g. The concentration for half-maximal inhibition (IC50) (commonly the concentration at which inhibition is half-maximal) with Influenza A virus was 5.97 nM. Moreover, the Tmax (as a rule, the time at which the peak concentration occurs) in the data set on Lung [19] is 3 h. This compound displayed a t1/2 with Lung [16] of 41.4 h.
For the compound `CC(=O)N[C@H]1[C@H]([C@H](O)[C@H](O)CO)OC(C(=O)O)=C[C@@H]1N[14C](=N)N` [[14C]-ZANAMIVIR], the Drug uptake is given as 30 nmolequiv/g in the data set on Lung [1] and 4 nmolequiv/g in data set [2].
